Measured values as given in US9884832B2 (priority 2011, dated 2018).
Read-outs that look alike come from different tables or passages of the source.

Experiments:
[1] = biological target: AM2 S31N (serine→asparagine mutation at residue 31 in the M2 protein) (Influenza A virus, UniProt P0DOF5, S31N); type: cell-based, influenza virus A/Udorn/72
[2] = biological target: AM2 V27A (valine→alanine mutation at residue 27 in the M2 protein) (Influenza A virus, UniProt P0DOF5, V27A); type: cell-based, influenza virus A/Udorn/72

Structure (SMILES)	S31N OOcyte Inhibition at 100 uM (%) ([1]; pH 5.5)	V27A OOcyte Inhibition at 100 uM (%) ([2]; pH 5.5)	S31N OOcyte Inhibition at 100 uM (%) [1]	V27A OOcyte Inhibition at 100 uM (%) [2]
O=[N+]([O-])c1ccccc1CNC12CC3CC(CC(C3)C1)C2 [Example 30, Adamantan-1-yl-(2-nitro-benzyl)-amine]	B (key: (A)=31-95%; (B)=0-30%)	B (key: (A)=31-95%; (B)=0-30%)		
OC1CCC(CNC23CC4CC(CC(C4)C2)C3)CC1 (stereo not shown) [Example 170a, 4-(Adamantan-1-ylaminomethyl)-cyclohexanol]			B (key: (A)=31-95%; (B)=0-30%)	B (key: (A)=31-95%; (B)=0-30%)
CC(C)(C)c1ccc(CNC23CC4CC(CC(C4)C2)C3)cc1 [Example 7a, N-(4-(tert-Butyl)benzyl)adamantan-1-amine methanesulfonate]			A (key: (A)=31-95%; (B)=0-30%)	B (key: (A)=31-95%; (B)=0-30%)
Cc1csc2sc(CNC34CC5CC(CC(C5)C3)C4)c(C)c12 [Example 176a]			B (key: (A)=31-95%; (B)=0-30%)	B (key: (A)=31-95%; (B)=0-30%)
CC(NC12CC3CC(CC(C3)C1)C2)c1ccc(C#N)s1 (stereo not shown) [Example 92a, 5-(1-(adamantan-1-ylamino)ethyl)thiophene-2-carbonitrile]			B (key: (A)=31-95%; (B)=0-30%)	B (key: (A)=31-95%; (B)=0-30%)
COc1cccc(COc2ccc(CNC34CC5CC(CC(C5)C3)C4)cc2)c1 [Example 14a, Adamantan-1-yl-[4-(3-methoxy-benzyloxy)-benzyl]-amine]			A (key: (A)=31-95%; (B)=0-30%)	B (key: (A)=31-95%; (B)=0-30%)
CC(C)(C)CC(C)(C)NCc1ccc(O)cc1O [Example 112, 4-[(1,1,3,3-Tetramethyl-butylamino)-methyl]-benzene-1,3-diol]	B (key: (A)=31-95%; (B)=0-30%)	A (key: (A)=31-95%; (B)=0-30%)		
Cc1cc(CNC23CC4CC(CC(C4)C2)C3)ccc1O [Example 51, 4-(Adamantan-1-ylaminomethyl)-2-methyl-phenol]	B (key: (A)=31-95%; (B)=0-30%)	B (key: (A)=31-95%; (B)=0-30%)		
c1csc(-c2ccc(CNC34CC5CC(CC(C5)C3)C4)cc2)c1 [Example 29a, N-(4-(Thiophen-2-yl)benzyl)adamantan-1-amine methanesulfonate]			A (key: (A)=31-95%; (B)=0-30%)	B (key: (A)=31-95%; (B)=0-30%)
c1cc(-c2nnn[nH]2)ccc1CNC12CC3CC(CC(C3)C1)C2 [Example 15, Adamantan-1-yl-[4-(1H-tetrazol-5-yl)-benzyl]amine]	B (key: (A)=31-95%; (B)=0-30%)	B (key: (A)=31-95%; (B)=0-30%)		
c1cc(-c2ccc(CNC34CC5CC(CC(C5)C3)C4)o2)[nH]n1 [Example 162a, N-((5-(1H-pyrazol-5-yl)furan-2-yl)methyl)adamantan-1-amine]			B (key: (A)=31-95%; (B)=0-30%)	B (key: (A)=31-95%; (B)=0-30%)
Oc1ccc(CNC23CC4CCC(CC(C4)C2)C3)c(O)c1 [Example 110, 4-(Tricyclo[4.3.1.13,8]undec-1-ylaminomethyl)-benzene-1,3-diol]	A (key: (A)=31-95%; (B)=0-30%)	A (key: (A)=31-95%; (B)=0-30%)		
c1coc(COc2ccc(CNC34CC5CC(CC(C5)C3)C4)cc2)c1 [Example 21, Adamantan-1-yl-[4-(furan-2-ylmethoxy)-benzyl]-amine]	A (key: (A)=31-95%; (B)=0-30%)	A (key: (A)=31-95%; (B)=0-30%)		
Oc1ccc(CNC2C3CC4CC(C3)CC2C4)cc1 (stereo not shown) [Example 99, 4-(Adamantan-2-ylaminomethyl)-phenol]	B (key: (A)=31-95%; (B)=0-30%)	B (key: (A)=31-95%; (B)=0-30%)		
Cc1ccsc1CNC12CC3CC(CC(C3)C1)C2 [Example 76a, N-((3-methylthiophen-2-yl)methyl)adamantan-1-amine]			B (key: (A)=31-95%; (B)=0-30%)	B (key: (A)=31-95%; (B)=0-30%)
COc1cc(CNC23CC4CC(CC(C4)C2)C3)ccc1O [Example 50, 4-(Adamantan-1-ylaminomethyl)-2-methoxy-phenol]	B (key: (A)=31-95%; (B)=0-30%)	A (key: (A)=31-95%; (B)=0-30%)		
COc1cc(Cl)sc1CNC12CC3CC(CC(C3)C1)C2 [Example 80a]			B (key: (A)=31-95%; (B)=0-30%)	B (key: (A)=31-95%; (B)=0-30%)
Cc1c(CNC23CC4CC(CC(C4)C2)C3)sc2ccccc12 [Example 177a, Adamantan-1-yl-(3-methyl-benzo[b]thiophen-2-ylmethyl)-amine]			B (key: (A)=31-95%; (B)=0-30%)	B (key: (A)=31-95%; (B)=0-30%)
Fc1ccc(C(F)(F)F)cc1CNC12CC3CC(CC(C3)C1)C2 [Example 62, Adamantan-1-yl-(2-fluoro-5-trifluoromethyl-benzyl)-amine]	B (key: (A)=31-95%; (B)=0-30%)	B (key: (A)=31-95%; (B)=0-30%)		
c1csc(-c2ccc(-c3ccc(CNC45CC6CC(CC(C6)C4)C5)s3)s2)c1 [Example 157a, N-([2,2′:5′,2″-terthiophen]-5-ylmethyl)adamantan-1-amine]			B (key: (A)=31-95%; (B)=0-30%)	B (key: (A)=31-95%; (B)=0-30%)
Oc1ccc(CNC23CC4CC(CC(C4)C2)C3)cc1F [Example 48, 4-(Adamantan-1-ylaminomethyl)-2-fluoro-phenol]	A (key: (A)=31-95%; (B)=0-30%)	A (key: (A)=31-95%; (B)=0-30%)		
COc1ccc2cc(CNC34CC5CC(CC(C5)C3)C4)ccc2c1 [Example 40a, Adamantan-1-yl-(6-methoxy-naphthalen-2-ylmethyl)-amine]			B (key: (A)=31-95%; (B)=0-30%)	A (key: (A)=31-95%; (B)=0-30%)
CC(=O)c1ccc(CNC23CC4CC(CC(C4)C2)C3)cc1 [Example 44a]			B (key: (A)=31-95%; (B)=0-30%)	B (key: (A)=31-95%; (B)=0-30%)
CC(NC1C2CC3CC(C2)CC1C3)c1ccc(O)cc1O (stereo not shown) [Example 102, 4-[1-(Adamantan-2-ylamino)-ethyl]-benzene-1,3-diol]	B (key: (A)=31-95%; (B)=0-30%)	A (key: (A)=31-95%; (B)=0-30%)		
O=[N+]([O-])c1cc(CNC23CC4CC(CC(C4)C2)C3)ccc1O [Example 52, 4-(Adamantan-1-ylaminomethyl)-2-nitro-phenol]	B (key: (A)=31-95%; (B)=0-30%)	A (key: (A)=31-95%; (B)=0-30%)		
c1cc(-c2ccc(CNC34CC5CC(CC(C5)C3)C4)s2)co1 [Example 137a, N-((5-(Furan-3-yl)thiophen-2-yl)methyl)adamantan-1-amine]			A (key: (A)=31-95%; (B)=0-30%)	B (key: (A)=31-95%; (B)=0-30%)
